From patent US5021421A, “2-(1-Piperazinyl)-4-phenylcycloalkanopyridine derivatives, processes for the production thereof, and pharmaceutical composition containing the same” (Dainippon Pharmaceutical Co., Ltd., priority 1989, dated 1991)
Read-outs that look alike come from different tables or passages of the source.

How the values were obtained:
exploratory activity = experiment: Inhibitory effect on exploratory activity (Animex activity meter); assay type: in vivo, mice (Std-ddy strain); conditions: oral, 2 h after administration, 3 min counting; dose not given
Procedure: A group of 5 male mice (Std-ddy strain, 20-25 g) was used. Two hours after oral administration of the test compound, mice were placed individually in a test box (23×35×30 cm) on Animex activity meter (Farad Co.). Immediately thereafter, activity counting was started and lasted for three minutes. The mean counts of the compound-treated group were compared with those of the corresponding control (non-dosed) group, and the percent inhibition was calculated.

dopamine (D2) receptor = target: T1, dopamine (D2) receptor (Rattus norvegicus, UniProt P61169); experiment: In vitro binding to dopamine (D2) receptor, [3H] spiperone; design: species or system rats; conditions: [3H] spiperone, rat brain crude synaptosome fraction; read-out: IC50 D2
T1 construct: Crude synaptosome fractions were prepared from some brain regions in rats for receptor sources; from tissue
T1 sequence (P61169 whole entry): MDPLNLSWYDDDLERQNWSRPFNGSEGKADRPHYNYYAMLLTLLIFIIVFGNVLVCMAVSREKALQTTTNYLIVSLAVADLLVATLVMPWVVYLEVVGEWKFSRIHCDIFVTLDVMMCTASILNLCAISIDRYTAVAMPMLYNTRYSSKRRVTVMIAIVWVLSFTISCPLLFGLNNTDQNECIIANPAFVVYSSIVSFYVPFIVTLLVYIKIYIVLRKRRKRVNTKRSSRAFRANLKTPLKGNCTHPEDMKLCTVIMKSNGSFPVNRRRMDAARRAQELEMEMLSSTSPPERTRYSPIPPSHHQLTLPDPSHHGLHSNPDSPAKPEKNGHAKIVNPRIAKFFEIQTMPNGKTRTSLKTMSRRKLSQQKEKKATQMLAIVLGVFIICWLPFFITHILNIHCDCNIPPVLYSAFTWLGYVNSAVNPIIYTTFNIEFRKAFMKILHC
Procedure: (§1) Dopamine (D2), serotonin (S1, S2) and adrenaline (α1) receptor binding assays were carried out according to the methods of I. Creese et al. [Eur. J. Pharmacol., 46, 377 (1977), S. J. Peroutka et al. [Mol. Pharmacol. 16, 687 (1979)], J. E. Leysen et al. [Mol. Pharmacol., 21, 301 (1982)] and D. C. U'Prichard et al. [Mol. Pharmacol., 13, 454 (1977)], respectively.
(§2) Crude synaptosome fractions were prepared from some brain regions in rats for receptor sources. Radioactive ligands used were [^3 H] spiperone (D2), [^3 H] serotonin (S1), [^3 H] ketanserin (S2) and [^3 H] WB-4101 (α1). The binding assay was performed by incubating aliquots of synaptosome fraction in buffer solution (final volume: 1 ml) containing a [^3 H] labelled ligand and a test compound. The assay was terminated by rapid filtration through Whatman GF/B glass fiber filters attached to a cell-harvester (Brandel) and radioactivity on the filters was counted in a Packard Triscarb scintillation counter. Specific binding was calculated as a difference between amounts of radioactivity in the presence and absence of an unlabelled ligand [spiperone (D2), serotonin (S1), methysergide (S2) and prazosin (α1)]. The IC50 value of the test compounds (concentration causing 50% inhibition of [^3 H] ligand specific binding) was determined by probit analysis.

serotonin (S2) receptor = target: T2, serotonin (S2) receptor (Rattus norvegicus, UniProt P14842); experiment: In vitro binding to serotonin (S2) receptor, [3H] ketanserin; design: species or system rats; conditions: [3H] ketanserin, rat brain crude synaptosome fraction
T2 construct: Crude synaptosome fractions were prepared from some brain regions in rats for receptor sources; from tissue
T2 sequence (P14842 whole entry): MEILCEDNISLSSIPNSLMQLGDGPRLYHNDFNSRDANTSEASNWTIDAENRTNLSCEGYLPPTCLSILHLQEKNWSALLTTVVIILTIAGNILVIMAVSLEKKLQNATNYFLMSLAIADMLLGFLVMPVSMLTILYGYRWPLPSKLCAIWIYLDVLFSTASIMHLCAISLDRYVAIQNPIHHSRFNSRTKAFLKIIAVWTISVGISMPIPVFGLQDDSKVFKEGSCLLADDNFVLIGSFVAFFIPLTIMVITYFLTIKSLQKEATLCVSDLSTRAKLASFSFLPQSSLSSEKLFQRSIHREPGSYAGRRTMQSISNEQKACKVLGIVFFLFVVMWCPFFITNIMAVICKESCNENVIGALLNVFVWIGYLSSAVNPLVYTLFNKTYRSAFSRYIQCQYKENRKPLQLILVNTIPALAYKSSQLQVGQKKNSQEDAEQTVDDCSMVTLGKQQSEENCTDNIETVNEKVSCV
Procedure: as §1, §2

adrenaline (α1) receptor = experiment: In vitro binding to adrenaline (α1) receptor, [3H] WB-4101; design: species or system rats; conditions: [3H] WB-4101, rat brain crude synaptosome fraction
Procedure: as §1, §2

[1] = tested on: apomorphine-induced vomiting; experiment: Antagonistic effect on apomorphine-induced vomiting; assay type: in vivo, dogs (Beagle); conditions: Canis lupus familiaris, sc, apomorphine 0.3 mg/kg s.c. 2 h after compound, read-out: Inhibitory ratio (apomorphine-induced vomiting)
Procedure: A group of 3-4 dogs (Beagle, 8-15 kg) was used for examining effects on the test compounds on apomorphine-induced vomiting, a known test for evaluating neuroleptic drugs.
Each dog was given a subcutaneous injection of apomorphine hydrochloride (0.3 mg/kg) two hours after the treatment of the test compounds. Then, the frequency of oral vomiting was counted for one hour. The mean counts of the compound-treated group were compared with those of the corresponding control (non-dosed) group, and the percent inhibition was calculated.

[2] = tested on: brain monoamine metabolites; experiment: Increasing effect on concentration of brain monoamine metabolites; assay type: in vivo, mice (Std-ddy strain); conditions: Mus musculus, 2 h, non-dosed=100
Procedure: A group of 5 male mice (Std-ddy strain, 25-30 g) was used for examining effect of the test compounds on concentration of brain monoamine metabolites.
Mice were killed by decapitation 2 hours after treatment with the test compounds. Brains were quickly taken out, homogenized in 1N formic acid-acetone solution, and centrifuged in a refrigerated ultracentrifuge. The supernatant was evaporated by blowing with N2 gas. Then, the residue was again resolved in 0.01 N acetic acid, and served for determining concentration of dopamine metabolites, 3,4-dihydroxyphenylacetic acid (DOPAC) and homovanillic acid (HVA), a norepinephrine metabolite, 3-methyl-4-hydroxyphenylethylene glycol (MOPEG), and a serotonin metabolite, 5-hydroxyindole-3-acetic acid (5-HIAA) concentrations by HPLC with electrochemical detection. The effect of the test compounds on concentration of each monoamine metabolite is shown as % of control (level of non-dosed animals=100) in Table 4.

[3] = read-out: 5-HIAA concentration, % of control
[4] = read-out: DOPAC concentration, % of control
[5] = read-out: HVA concentration, % of control

With `CCN1CCN(c2cc(-c3ccc(F)cc3F)c3c(n2)CCCCCC3)CC1` [Example 2a, 2-(4-ethyl-1-piperazinyl)-4-(2,4-difluorophenyl)-5,6,7,8,9,10-hexahydrocycloocta[b] pyridine] the “Inhibitory ratio (exploratory activity)” value (exploratory activity) was 77.5%, the IC50 (dopamine (D2) receptor) was 24 nM and the IC50 (serotonin (S2) receptor) was 28 nM. For the same compound, the IC50 (adrenaline (α1) receptor) was 88 nM.
Work on `OCCN1CCN(c2cc(-c3ccc(F)cc3)c3c(n2)CCC3)CC1` [Example 7, 2-[4-(2-Hydroxyethyl)-1-piperazinyl]-4-(4-fluoro-phenyl)-6,7-dihydro-5H-1-pyrindine] yielded an inhibition in vivo at 1 mg/kg [1] of 80%, an IC50 (dopamine (D2) receptor) of 30 nM and an IC50 (serotonin (S2) receptor) of 9.5 nM.
For `CCN1CCN(c2cc(-c3ccc(Cl)cc3)c3c(n2)CCCCC3)CC1` [Example 31], the “Inhibitory ratio (exploratory activity)” value (exploratory activity) was 62.5%.
For `CCN1CCN(c2cc(-c3ccccc3)c3c(n2)CCCCCC3)CC1` [Example 36], the inhibition in vivo at 0.5 mg/kg [1] was 81% and the “Inhibitory ratio (exploratory activity)” value (exploratory activity) was 68.4%.
In the case of `Fc1ccc(-c2cc(N3CCN(C4CCCC4)CC3)nc3c2CCCCCC3)cc1` [Example 38], the “Inhibitory ratio (exploratory activity)” value (exploratory activity) is reported as 58.9%.
In the case of `OCCN1CCN(c2cc(-c3ccc(F)cc3F)c3c(n2)CCCCCC3)CC1` [Example 53], the “Inhibitory ratio (exploratory activity)” value (exploratory activity) is reported as 68.1%.
With `CCN1CCN(c2cc(-c3ccccc3)c3c(n2)CCC(C)C3)CC1` (stereo not drawn) [Example 57] the “Inhibitory ratio (exploratory activity)” value (exploratory activity) was 77.2%.
With `CCN1CCN(c2cc(-c3ccccc3)c3c(n2)C2CCC3C2)CC1` (stereo not drawn) [Example 71] the inhibition in vivo at 3 mg/kg [1] was 84%, the “Inhibitory ratio (exploratory activity)” value (exploratory activity) was 61.9% and the IC50 (dopamine (D2) receptor) was 25 nM. The IC50 (serotonin (S2) receptor) was 14 nM and the IC50 (adrenaline (α1) receptor) was 13 nM.
Compound `CCN1CCN(c2cc(-c3ccc(F)cc3)c3c(n2)C2CCC3C2)CC1` (stereo not drawn) [Example 73] has an inhibition in vivo at 1 mg/kg [1] of 100%, an IC50 (dopamine (D2) receptor) of 18 nM and an IC50 (serotonin (S2) receptor) of 2.4 nM. For the same compound, the IC50 (adrenaline (α1) receptor) was 4.6 nM.
For `CCN1CCN(c2cc(-c3ccc(F)cc3)c3c(n2)C2CCC3CC2)CC1` [Example 75], the “Inhibitory ratio (exploratory activity)” value (exploratory activity) was 78.9%.
`CC1CN(c2cc(-c3ccc(F)cc3)c3c(n2)CCCCCC3)CCN1` (stereo not drawn) [Example 83, 2-(3-Methyl-1-piperazinyl)-4-(4-fluorophenyl)-5,6,7,8,9,10-hexahydrocycloocta[b]pyridine] was tested, and the “Inhibitory ratio (exploratory activity)” value (exploratory activity) was 53.5%.
In the case of `c1ccc(-c2cc(N3CCNCC3)nc3c2CCCCCC3)cc1` [Example 103], the IC50 (dopamine (D2) receptor) is reported as 140 nM and the IC50 (serotonin (S2) receptor) is reported as 41 nM.
For `Fc1ccc(-c2cc(N3CCNCC3)nc3c2CCCCCC3)c(F)c1` [Example 106], the “Inhibitory ratio (exploratory activity)” value (exploratory activity) was 74.9%.
In the case of `c1ccc(-c2cc(N3CCNCC3)nc3c2C2CCC3C2)cc1` (stereo not drawn) [Example 107], the “Inhibitory ratio (exploratory activity)” value (exploratory activity) is reported as 53.2%.
`CN1CCN(c2cc(-c3ccc(F)cc3)c3c(n2)CCC3)CC1` [Example 111, 2-(4-methyl-1-piperazinyl)-4-(4-fluorophenyl)-6,7-dihydro-5H-1-pyrindine] was tested, and the “Inhibitory ratio (exploratory activity)” value (exploratory activity) was 74.0%.
With `CN1CCN(c2cc(-c3ccc(F)cc3)c3c(n2)CCCCCC3)CC1.O=C(O)/C=C\C(=O)O.O=C(O)/C=C\C(=O)O` [Example 112, 2-(4-Methyl-1-piperazinyl)-4-(4-fluorophenyl)-5,6,7,8,9,10-hexahydrocycloocta[b]pyridine dimaleate] the inhibition in vivo at 0.2 mg/kg [1] was 94% and the “Inhibitory ratio (exploratory activity)” value (exploratory activity) was 73.2%.
`CN1CCN(c2cc(-c3ccc(F)cc3F)c3c(n2)CCCCCC3)CC1` [Example 114, 2-(4-Methyl-1-piperazinyl)-4-(2,4-difluorophenyl)-5,6,7,8,9,10-hexahydrocycloocta[b]pyridine] was tested, and the inhibition in vivo at 0.2 mg/kg [1] was 89% and the “Inhibitory ratio (exploratory activity)” value (exploratory activity) was 81.9%.
For `CCCN1CCN(c2cc(-c3ccc(F)cc3)c3c(n2)CCCCCC3)CC1` [Example 118, 2-(4-n-propyl-1-piperazinyl)-4-(4-fluorophenyl)-5,6,7,8,9,10-hexahydrocycloocta[b]pyridine], the inhibition in vivo at 0.3 mg/kg ([1]; dose 0.3 mg/kg) was 94%, the response vs control in vivo at 3 mg/kg [2, 3] was 110% and the response vs control in vivo at 3 mg/kg [2, 4] was 302%. The response vs control in vivo at 3 mg/kg [2, 5] was 250% and the response vs control in vivo at 3 mg/kg ([2]; read-out: MOPEG concentration, % of control) was 129%.
Compound `CC(C)N1CCN(c2cc(-c3ccc(F)cc3)c3c(n2)CCCCCC3)CC1` [Example 121] has an inhibition in vivo at 0.5 mg/kg [1] of 93%, a response vs control in vivo at 10 mg/kg [2, 3] of 111% and a response vs control in vivo at 10 mg/kg [2, 4] of 312%. For the same compound, the response vs control in vivo at 10 mg/kg [2, 5] was 215%.
Compound `CCCCN1CCN(c2cc(-c3ccc(F)cc3)c3c(n2)CCCCCC3)CC1` [Example 122, 2-(4-n-Butyl-1-piperazinyl)-4-(4-fluorophenyl)-5,6,7,8,9,10-hexahydrocycloocta[b]pyridine] has an inhibition in vivo at 0.5 mg/kg [1] of 100%, a response vs control in vivo at 2 mg/kg [2, 3] of 100% and a response vs control in vivo at 2 mg/kg [2, 4] of 306%. The response vs control in vivo at 2 mg/kg [2, 5] was 229% and the “Inhibitory ratio (exploratory activity)” value (exploratory activity) was 81.3%.
For `CCCCCN1CCN(c2cc(-c3ccc(F)cc3)c3c(n2)CCCCCC3)CC1` [Example 123, 2-(4-n-Pentyl-1-piperazinyl)-4-(4-fluorophenyl)-5,6,7,8,9,10-hexahydrocycloocta[b]pyridine], the “Inhibitory ratio (exploratory activity)” value (exploratory activity) was 72.2%.
In the case of `C=CCN1CCN(c2cc(-c3ccc(F)cc3)c3c(n2)CCCCCC3)CC1` [Example 125], the “Inhibitory ratio (exploratory activity)” value (exploratory activity) is reported as 57.9%.
For `CCCN1CCN(c2cc(-c3ccc(F)cc3F)c3c(n2)CCCCCC3)CC1` [Example 127, 2-(4-n-propyl-1-piperazinyl)-4-(2,4-difluorophenyl)-5,6,7,8,9,10-hexahydrocycloocta[b]pyridine], the “Inhibitory ratio (exploratory activity)” value (exploratory activity) was 80.3%.
`COc1ccc(-c2cc(N3CCN(c4ccccc4)CC3)nc(C)c2-c2ccc(OC)cc2)cc1` [Test Compound B, 4,5-Bis-(4-methoxyphenyl)-6-methyl-2-(4-phenylpiperazino)pyridine, reference compound] gave an inhibition in vivo at 3 mg/kg [1] of 13% and an IC50 (dopamine (D2) receptor) greater than 10000 nM.
Work on `Cc1nc(N2CCN(c3ccccc3)CC2)cc(-c2ccc(O)cc2)c1-c1ccc(O)cc1` [Test Compound C, 4,5-Bis-(4-hydroxyphenyl)-6-methyl-2-(4-phenylpiperazino)pyridine, reference compound] yielded an inhibition in vivo at 3 mg/kg [1] of 16% and an IC50 (dopamine (D2) receptor) greater than 10000 nM.
